Reference: publication PMC9865890, “N-Derivatives of (Z)-Methyl 3-(4-Oxo-2-thioxothiazolidin-5-ylidene)methyl)-1H-indole-2-carboxylates as Antimicrobial Agents—In Silico and In Vitro Evaluation” (Pharmaceuticals, 2023)
≈ marks a conversion by molar mass, not a printed value. Like-named read-outs stand apart in the source and are kept apart here.

What was measured:
[1] = tested on: Bacillus cereus (clinical isolate); assay: Antibacterial microdilution (MIC/MBC); assay type: cell-based; conditions: B.c. (B. cereus)
Procedure: (§1) The synthesized compounds (Table 1) were evaluated for their antibacterial activity against a panel of eight species using a microdilution method with ampicillin and streptomycin as reference drugs. […] The order of activity can be presented as: 8 > 11 > 2 > 1 > 12 > 3 > 17 > 7 > 5 > 13 > 14 > 16 > 9 > 4 = 6 > 15 > 10. […] Cloacae. […] The most sensitive bacteria appeared to be En. cloacae, while E. coli was the most resistant one, followed by M. flavus.
(§2) The following Gram-negative bacteria: Escherichia coli (ATCC 35210), Enterobacter cloacae (clinical isolate), Salmonella typhimurium (ATCC 13311), as well as Gram-positive bacteria: Listeria monocytogenes (NCTC 7973), Bacillus cereus (clinical isolate), and Staphylococcus aureus (ATCC 6538) were used. The organisms were obtained from the Mycological Laboratory, Department of Plant Physiology, Institute for Biological Research “Siniša Stankovic”, Belgrade, Serbia. The minimum inhibitory (MIC) and minimum bactericidal (MBC) concentrations were determined by the modified microdilution method, as previously reported.

[2] = tested on: Enterobacter cloacae (clinical isolate); assay: Antibacterial microdilution (MIC/MBC); assay type: cell-based; conditions: Enterobacter cloacae, En.cl (En. cloacae); for MIC: read-out: MIC
Procedure: as §1, §2

[3] = tested on: Escherichia coli (ATCC 35210); assay: Antibacterial microdilution (MIC/MBC); assay type: cell-based; conditions: E. coli
Procedure: as §1, §2

[4] = tested on: Listeria monocytogenes (NCTC 7973); assay: Antibacterial microdilution (MIC/MBC); assay type: cell-based; conditions: Listeria monocytogenes, NCTC7973, L.m. (L. monocytogenes); for MIC: read-out: MIC
Procedure: as §1, §2

M. flavus = assay: Antibacterial microdilution (MIC/MBC); assay type: cell-based; conditions: Micrococcus flavus; M.f. (M. flavus)
Procedure: as §1, §2

P. aeruginosa = assay: Antibacterial microdilution (MIC/MBC); assay type: cell-based; conditions: Pseudomonas aeruginosa, P.a. (P. aeruginosa); for MIC: read-out: MIC
Procedure: as §1, §2

[5] = tested on: Salmonella typhimurium (ATCC 13311); assay: Antibacterial microdilution (MIC/MBC); assay type: cell-based; conditions: S.t. (S. typhimurium)
Procedure: as §1, §2

[6] = tested on: Staphylococcus aureus (ATCC 6538); assay: Antibacterial microdilution (MIC/MBC); assay type: cell-based; conditions: S.a. (S. aureus)
Procedure: as §1, §2

A. ochraceus = assay: Antifungal bioassay (MIC/MFC); assay type: cell-based; conditions: A.o. (A. ochraceus)
Procedure: (§3) For the antifungal bioassays, six fungi were used: […] The organisms were obtained from the Mycological Laboratory, Department of Plant Physiology, Institute for Biological Research “Siniša Stankovic”, Belgrade, Serbia. All experiments were performed in duplicate.

[7] = tested on: Aspergillus fumigatus (ATCC 1022); assay: Antifungal bioassay (MIC/MFC); assay type: cell-based; conditions: ATCC1022, A.f. (A. fumigatus)
Procedure: as §3

[8] = tested on: Aspergillus niger (ATCC 6275); assay: Antifungal bioassay (MIC/MFC); assay type: cell-based; conditions: ATCC6275, A.n. (A. niger)
Procedure: as §3

[9] = tested on: Aspergillus versicolor (ATCC 11730); assay: Antifungal bioassay (MIC/MFC); assay type: cell-based; conditions: ATCC11730, A.v. (A. versicolor)
Procedure: as §3

P. ochrochloron = assay: Antifungal bioassay (MIC/MFC); assay type: cell-based; conditions: for MIC: P.o. (P. ochrochloron; text: P. ochramensis); for MFC: P.o. (P. ochrochloron)
Procedure: as §3

[10] = tested on: Penicillium funiculosum (ATCC 36839); assay: Antifungal bioassay (MIC/MFC); assay type: cell-based; conditions: Talaromyces funiculosus, ATCC36839; P.f. (P. funiculosum)
Procedure: as §3

[11] = tested on: Trichoderma viride (IAM 5061); assay: Antifungal bioassay (MIC/MFC); assay type: cell-based; conditions: T.v. (T. viride)
Procedure: as §3

[12] = tested on: Penicillium verrucosum var. cyclopium (food isolate); assay: Antifungal bioassay (MIC/MFC); assay type: cell-based
Procedure: For the antifungal bioassays, six fungi were used: Aspergillus niger (ATCC 6275), Aspergillus fumigatus (ATCC 1022), Aspergillus versicolor (ATCC 11730), Penicillium funiculosum (ATCC 36839), Trichoderma viride (IAM 5061), and Penicillium verrucosum var. cyclopium (food isolate). The organisms were obtained from the Mycological Laboratory, Department of Plant Physiology, Institute for Biological Research “Siniša Stankovic”, Belgrade, Serbia. All experiments were performed in duplicate.

[13] = Escherichia coli, ATCC35210, read-out: MIC
[14] = Salmonella enterica, read-out: MIC
[15] = Staphylococcus aureus, ATCC6538
[16] = Staphylococcus aureus, ATCC6538, read-out: MIC
[17] = Aspergillus ochraceus, read-out: MIC
[18] = Penicillium ochrochloron, read-out: MIC
[19] = Trichoderma viride, IAM5061, read-out: MIC

Row | SMILES | MBC ([1]; Bacillus cereus) | MIC ([1]; Bacillus cereus, read-out: MIC) | MBC [2] | MIC [2] | MBC ([3]; Escherichia coli, ATCC35210) | MIC [3, 13] | MBC [4] | MIC [4] | MBC (M. flavus) | MIC (M. flavus) | MBC (P. aeruginosa) | MIC (P. aeruginosa) | MBC ([5]; Salmonella enterica) | MIC [5, 14] | MBC [6, 15] | MIC [6, 16] | MFC (A. ochraceus; Aspergillus ochraceus) | MFC [7] | MIC [7] | MFC [9] | further results
1 | COC(=O)c1[nH]c2ccccc2c1/C=C1\SC(=S)N(CCCCCC(=O)O)C1=O [Compound 1, (Z)-6-(5-((2-(methoxycarbonyl)-1H-indol-3-yl)methylene)-4-oxo-2-thioxothiazolidin-3-yl)hexanoic acid] | 30 ± 10 µg/mL (≈ 69.4 µM) | 15 µg/mL (≈ 34.7 µM) | 30 ± 10 µg/mL (≈ 69.4 µM) | 22 ± 5 µg/mL (≈ 50.9 µM) | 30 ± 10 µg/mL (≈ 69.4 µM) | 15 µg/mL (≈ 34.7 µM) | 60 ± 6 µg/mL (≈ 139 µM) | 22 ± 4 µg/mL (≈ 50.9 µM) | 30 ± 10 µg/mL (≈ 69.4 µM) | 22 ± 5 µg/mL (≈ 50.9 µM) | 60 ± 6 µg/mL (≈ 139 µM) | 22 ± 5 µg/mL (≈ 50.9 µM) | 30 ± 10 µg/mL (≈ 69.4 µM) | 15 µg/mL (≈ 34.7 µM) | 30 ± 10 µg/mL (≈ 69.4 µM) | 22 ± 5 µg/mL (≈ 50.9 µM) | 15 ± 3 µg/mL (≈ 34.7 µM) | 120 ± 40 µg/mL (≈ 277 µM) | 60 ± 6 µg/mL (≈ 139 µM) | 60 ± 6 µg/mL (≈ 139 µM) | MIC [1]: 15 ± 9 µg/mL (≈ 34.7 µM); MIC [3]: 15 ± 9 µg/mL (≈ 34.7 µM); MIC [5]: 15 ± 9 µg/mL (≈ 34.7 µM); MIC (A. ochraceus): 8 ± 0.6 µg/mL (≈ 18.5 µM); MIC (A. ochraceus; [17]): 8 µg/mL (≈ 18.5 µM); MFC [8]: 30 ± 10 µg/mL (≈ 69.4 µM); MIC [8]: 22 ± 5 µg/mL (≈ 50.9 µM); MIC [9]: 30 ± 10 µg/mL (≈ 69.4 µM); MIC (P. ochrochloron): 4 ± 1 µg/mL (≈ 9.25 µM); MFC (P. ochrochloron; Penicillium ochrochloron): 8 ± 0.6 µg/mL (≈ 18.5 µM); MIC (P. ochrochloron; [18]): 4 µg/mL (≈ 9.25 µM); MFC [10]: 30 ± 10 µg/mL (≈ 69.4 µM); MIC [10]: 15 ± 3 µg/mL (≈ 34.7 µM); MFC ([11]; Trichoderma viride, IAM5061): 30 ± 10 µg/mL (≈ 69.4 µM); MIC [11, 19]: 15 ± 3 µg/mL (≈ 34.7 µM); MFC [12]: 60 ± 6 µg/mL (≈ 139 µM); MIC [12]: 30 ± 10 µg/mL (≈ 69.4 µM); melting point: 135 to 138 °C
2 | COC(=O)c1[nH]c2ccccc2c1/C=C1\SC(=S)N(c2ccc(C(=O)O)cc2)C1=O [Compound 2, (Z)-4-(5-((2-(methoxycarbonyl)-1H-indol-3-yl)methylene)-4-oxo-2-thioxothiazolidin-3-yl)benzoic acid] | 30 ± 10 µg/mL (≈ 68.4 µM) | 15 µg/mL (≈ 34.2 µM) | 30 ± 10 µg/mL (≈ 68.4 µM) | 15 ± 9 µg/mL (≈ 34.2 µM) | 30 ± 10 µg/mL (≈ 68.4 µM) | 22 ± 5 µg/mL (≈ 50.2 µM) | 60 ± 6 µg/mL (≈ 137 µM) | 30 ± 10 µg/mL (≈ 68.4 µM) | 30 ± 10 µg/mL (≈ 68.4 µM) | 22 ± 5 µg/mL (≈ 50.2 µM) | 60 ± 6 µg/mL (≈ 137 µM) | 30 ± 10 µg/mL (≈ 68.4 µM) | 30 ± 10 µg/mL (≈ 68.4 µM) | 22 ± 5 µg/mL (≈ 50.2 µM) | 30 ± 10 µg/mL (≈ 68.4 µM) | 15 µg/mL (≈ 34.2 µM) | 15 ± 3 µg/mL (≈ 34.2 µM) | 60 ± 6 µg/mL (≈ 137 µM) | 30 ± 10 µg/mL (≈ 68.4 µM) | 30 ± 10 µg/mL (≈ 68.4 µM) | MIC [1]: 15 ± 9 µg/mL (≈ 34.2 µM); MIC [6]: 15 ± 9 µg/mL (≈ 34.2 µM); MFC [8]: 30 ± 10 µg/mL (≈ 68.4 µM); MIC [8]: 22 ± 5 µg/mL (≈ 50.2 µM); MIC [9]: 15 ± 3 µg/mL (≈ 34.2 µM); MFC (P. ochrochloron; Penicillium ochrochloron): 30 ± 10 µg/mL (≈ 68.4 µM); MIC (P. ochrochloron; [18]): 15 ± 3 µg/mL (≈ 34.2 µM); MFC [10]: 30 ± 10 µg/mL (≈ 68.4 µM); MIC [10]: 15 ± 3 µg/mL (≈ 34.2 µM); MFC ([11]; Trichoderma viride, IAM5061): 15 ± 3 µg/mL (≈ 34.2 µM); MIC [11, 19]: 8 ± 0.6 µg/mL (≈ 18.2 µM); MFC [12]: 60 ± 6 µg/mL (≈ 137 µM); MIC [12]: 30 ± 10 µg/mL (≈ 68.4 µM); melting point: 294 to 295 °C
3 | COC(=O)c1[nH]c2ccccc2c1/C=C1\SC(=S)N(N2CCOCC2)C1=O [Compound 6, (Z)-methyl 3-((3-morpholino-4-oxo-2-thioxothiazolidin-5-ylidene)methyl)-1H-indole-2-carboxylate] | 60 ± 6 µg/mL (≈ 149 µM) | 30 ± 10 µg/mL (≈ 74.4 µM) | 30 ± 10 µg/mL (≈ 74.4 µM) | 15 ± 9 µg/mL (≈ 37.2 µM) | 120 ± 10 µg/mL (≈ 297 µM) | 60 ± 6 µg/mL (≈ 149 µM) | 60 ± 6 µg/mL (≈ 149 µM) | 30 ± 10 µg/mL (≈ 74.4 µM) | 60 ± 6 µg/mL (≈ 149 µM) | 45 ± 3 µg/mL (≈ 112 µM) | 60 ± 6 µg/mL (≈ 149 µM) | 30 ± 10 µg/mL (≈ 74.4 µM) | 60 ± 6 µg/mL (≈ 149 µM) | 30 ± 10 µg/mL (≈ 74.4 µM) | 30 ± 10 µg/mL (≈ 74.4 µM) | 15 µg/mL (≈ 37.2 µM) | 15 ± 3 µg/mL (≈ 37.2 µM) | 120 ± 40 µg/mL (≈ 297 µM) | 60 ± 6 µg/mL (≈ 149 µM) | 15 ± 3 µg/mL (≈ 37.2 µM) | MIC [6]: 15 ± 9 µg/mL (≈ 37.2 µM); MIC (A. ochraceus; [17]): 8 ± 0.6 µg/mL (≈ 19.8 µM); MIC [9]: 8 ± 0.6 µg/mL (≈ 19.8 µM); MIC (P. ochrochloron): 8 ± 0.6 µg/mL (≈ 19.8 µM); MFC (P. ochrochloron; Penicillium ochrochloron): 15 ± 3 µg/mL (≈ 37.2 µM); MIC (P. ochrochloron; [18]): 8 µg/mL (≈ 19.8 µM); MFC [10]: 30 ± 10 µg/mL (≈ 74.4 µM); MIC [10]: 15 ± 3 µg/mL (≈ 37.2 µM); MIC [11]: 8 ± 0.6 µg/mL (≈ 19.8 µM); MFC ([11]; Trichoderma viride, IAM5061): 15 ± 3 µg/mL (≈ 37.2 µM); MIC [11, 19]: 8 µg/mL (≈ 19.8 µM); MFC [12]: 30 ± 10 µg/mL (≈ 74.4 µM); MIC [12]: 15 ± 3 µg/mL (≈ 37.2 µM); melting point: 278 to 280 °C
